According to patent US20240299385A1 (ReWind Therapeutics NV, priority 2021, published 2024):
pIC50: −log10 of the molar value.

These molecules were tested against T1, human GPR17 receptor (Homo sapiens, UniProt Q13304) (assay: Calcium mobilization functional assay (Fluo-8, FLIPR TETRA) in HEK-293 hGPR17 (Gα-q assay)). Conditions: antagonism of MDL29,951 (~EC80) induced Ca2+ signal; cell line (HEK-293 hGPR17 or HEK-293 Suchi5 hGPR17) not given.
T1 construct: host or cells: HEK-293
T1 sequence (Q13304 whole entry): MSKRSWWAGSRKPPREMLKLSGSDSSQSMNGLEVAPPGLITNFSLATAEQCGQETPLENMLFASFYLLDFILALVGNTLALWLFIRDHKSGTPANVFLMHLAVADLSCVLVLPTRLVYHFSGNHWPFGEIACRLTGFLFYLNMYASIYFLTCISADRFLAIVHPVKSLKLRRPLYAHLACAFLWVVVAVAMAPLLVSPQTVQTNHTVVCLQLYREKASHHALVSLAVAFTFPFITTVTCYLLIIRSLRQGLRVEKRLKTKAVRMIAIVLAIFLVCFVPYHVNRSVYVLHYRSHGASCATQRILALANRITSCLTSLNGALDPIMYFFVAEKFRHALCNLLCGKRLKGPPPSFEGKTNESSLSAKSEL
Format: cell-based
Summary of the method: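 Fluo-8-loaded HEK-293 hGPR17 cells (60 min dye loading, room temperature) were preincubated with compound for twenty minutes, then challenged with agonist MDL29,951 at ~EC80, 500 nM. Intracellular calcium release via Gα-q was recorded as FLIPR fluorescence for a further 2 minutes; compounds tested in duplicate.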
`COc1cccc(Cc2c[nH]cc2S(=O)(=O)Nc2cc(F)c(C(F)(F)F)cc2F)c1` [Cpd 482, N-[2,5-difluoro-4-(trifluoromethyl)phenyl]-4-[(3-methoxyphenyl)methyl]-1H-pyrrole-3-sulfonamide] was tested, and the pIC50 was 5.30 to 6.30.
Molecule `O=S(=O)(Nc1cc(F)c(Br)cc1F)c1c[nH]c(-c2cccc(Br)n2)c1` [Cpd 528, N-(4-bromo-2,5-difluorophenyl)-5-(6-bromopyridin-2-yl)-1H-pyrrole-3-sulfonamide] has a pIC50 greater than 6.30.
Molecule `Cc1ncccc1NS(=O)(=O)c1c[nH]c(-c2ccccc2)c1` [Cpd 100, N-(2-methyl-3-pyridyl)-5-phenyl-1H-pyrrole-3-sulfonamide] has a pIC50 of 5.30 to 6.30.
`N#Cc1ccc(NS(=O)(=O)c2c[nH]cc2Cc2ccc(F)c(Cl)c2)c(F)c1` [Cpd 545, 4-[(3-chloro-4-fluorophenyl)methyl]-N-(4-cyano-2-fluorophenyl)-1H-pyrrole-3-sulfonamide] was tested, and the pIC50 was greater than 6.30.
Work on `Cc1csc(-c2cc(S(=O)(=O)Nc3cc(F)c(C#N)cc3F)c[nH]2)n1` [Cpd 649, N-(4-cyano-2,5-difluorophenyl)-5-(4-methyl-1,3-thiazol-2-yl)-1H-pyrrole-3-sulfonamide] yielded a pIC50 greater than 6.30.
`N#Cc1ccc(NS(=O)(=O)c2c[nH]cc2Cc2cccc(Br)c2)c(F)c1` [Cpd 391, 4-[(3-bromophenyl)methyl]-N-(4-cyano-2-fluorophenyl)-1H-pyrrole-3-sulfonamide] was tested, and the pIC50 was greater than 6.30.
Work on `O=S(=O)(Nc1cc(F)c(C(F)(F)F)cc1F)c1c[nH]c(-c2cccc3ccoc23)c1` [Cpd 517, 5-(1-benzofuran-7-yl)-N-[2,5-difluoro-4-(trifluoromethyl)phenyl]-1H-pyrrole-3-sulfonamide] yielded a pIC50 of 5.30 to 6.30.
With `N#Cc1ccc(NS(=O)(=O)c2c[nH]c(-c3csc(Cl)c3)c2)c(F)c1` [Cpd 562, 5-(5-chlorothiophen-3-yl)-N-(4-cyano-2-fluorophenyl)-1H-pyrrole-3-sulfonamide] the pIC50 was greater than 6.30.
For `COc1ccc(F)c(-c2cc(S(=O)(=O)Nc3cc(F)c(C(F)(F)F)cc3F)c[nH]2)c1` [Cpd 117, N-[2,5-difluoro-4-(trifluoromethyl)phenyl]-5-(2-fluoro-5-methoxy-phenyl)-1H-pyrrole-3-sulfonamide], the pIC50 was 5.30 to 6.30.
Molecule `N#Cc1cc(F)c(NS(=O)(=O)c2c[nH]cc2-c2cccc(F)c2)cc1F` [Cpd 497, N-(4-cyano-2,5-difluorophenyl)-4-(3-fluorophenyl)-1H-pyrrole-3-sulfonamide] has a pIC50 greater than 6.30.
For `O=S(=O)(Nc1cc(F)c(OC(F)F)cc1F)c1c[nH]c(-c2csc(Cl)c2)c1` [Cpd 664, 5-(5-chlorothiophen-3-yl)-N-[4-(difluoromethoxy)-2,5-difluorophenyl]-1H-pyrrole-3-sulfonamide], the pIC50 was 5.30 to 6.30.
Work on `O=S(=O)(Nc1ccc(OC(F)(F)F)cc1F)c1c[nH]c(-c2ccccc2)c1` [Cpd 143, N-[2-fluoro-4-(trifluoromethoxy)phenyl]-5-phenyl-1H-pyrrole-3-sulfonamide] yielded a pIC50 of 5.30 to 6.30.
`O=S(=O)(Nc1cc(F)c(OC(F)F)cc1F)c1c[nH]c(C2CCC2)c1` [Cpd 550, 5-cyclobutyl-N-[4-(difluoromethoxy)-2,5-difluorophenyl]-1H-pyrrole-3-sulfonamide] gave a pIC50 greater than 6.30.
`N#Cc1ccc(NS(=O)(=O)c2c[nH]c(-c3cscc3F)c2)c(F)c1` [Cpd 594, N-(4-cyano-2-fluorophenyl)-5-(4-fluorothiophene-3-yl)-1H-pyrrole-3-sulfonamide] gave a pIC50 greater than 6.30.
Molecule `COc1nc(Cl)c(F)cc1NS(=O)(=O)c1c[nH]cc1-c1cccc(F)c1` [Cpd 428, N-(6-chloro-5-fluoro-2-methoxypyridin-3-yl)-4-(3-fluorophenyl)-1H-pyrrole-3-sulfonamide] has a pIC50 of 5.30 to 6.30.
Work on `O=S(=O)(Nc1cc(Cl)ncc1F)c1c[nH]c(-c2ccccc2)c1` [Cpd 146, N-(2-chloro-5-fluoro-4-pyridyl)-5-phenyl-1H-pyrrole-3-sulfonamide] yielded a pIC50 of 4.30 to 5.30.
`CC1(C)CC(c2cc(S(=O)(=O)Nc3cc(F)c(C(F)(F)F)cc3F)c[nH]2)C1` [Cpd 571, N-[2,5-difluoro-4-(trifluoromethyl)phenyl]-5-(3,3-dimethylcyclobutyl)-1H-pyrrole-3-sulfonamide] showed a pIC50 of 4.30 to 5.30.
For `N#Cc1cc(F)c(NS(=O)(=O)c2c[nH]c(-c3cccc(F)c3)c2)cc1F` [Cpd 654, N-(4-cyano-2,5-difluorophenyl)-5-(3-fluorophenyl)-1H-pyrrole-3-sulfonamide], the pIC50 was greater than 6.30.
`O=S(=O)(Nc1cc(F)c(OC(F)F)cc1F)c1c[nH]c(-c2cc(Cl)cs2)c1` [Cpd 666, 5-(4-chlorothiophen-2-yl)-N-[4-(difluoromethoxy)-2,5-difluorophenyl]-1H-pyrrole-3-sulfonamide] was tested, and the pIC50 was greater than 6.30.
`O=S(=O)(Nc1cc(F)c(C(F)(F)F)cc1F)c1cc(-c2ccccc2)[nH]c1F` [Cpd 627, N-[2,5-difluoro-4-(trifluoromethyl)phenyl]-2-fluoro-5-phenyl-1H-pyrrole-3-sulfonamide] was tested, and the pIC50 was 5.30 to 6.30.
With `N#Cc1ccc(NS(=O)(=O)c2c[nH]cc2-c2ccsc2)c(F)c1` [Cpd 400, N-(4-cyano-2-fluorophenyl)-4-thiophen-3-yl-1H-pyrrole-3-sulfonamide] the pIC50 was 5.30 to 6.30.
`Cc1ccc(-c2cc(S(=O)(=O)Nc3ccc(C#N)cc3F)c[nH]2)c(C)c1` [Cpd 329, N-(4-cyano-2-fluoro-phenyl)-5-(2,4-dimethylphenyl)-1H-pyrrole-3-sulfonamide] showed a pIC50 of 5.30 to 6.30.
For `O=S(=O)(Nc1nc(F)c(OCCF)cc1F)c1c[nH]c(-c2cc(Cl)ccc2F)c1` [Cpd 655, 5-(5-chloro-2-fluorophenyl)-N-[3,6-difluoro-5-(2-fluoroethoxy)pyridin-2-yl]-1H-pyrrole-3-sulfonamide], the pIC50 was greater than 6.30.
Molecule `N#Cc1cccc(-c2cc(S(=O)(=O)Nc3ccc(C#N)cc3F)c[nH]2)c1` [Cpd 025, N-(4-cyano-2-fluoro-phenyl)-5-(3-cyanophenyl)-1H-pyrrole-3-sulfonamide] has a pIC50 greater than 6.30.
With `O=S(=O)(Nc1cc(F)c(OC(F)F)cc1F)c1c[nH]c(-c2cccc(Cl)n2)c1` [Cpd 515, 5-(6-chloropyridin-2-yl)-N-[4-(difluoromethoxy)-2,5-difluorophenyl]-1H-pyrrole-3-sulfonamide] the pIC50 was greater than 6.30.
With `N#Cc1ccc(F)c(-c2cc(S(=O)(=O)Nc3cc(F)c(C(F)(F)F)cc3F)c[nH]2)c1` [Cpd 554, 5-(5-cyano-2-fluorophenyl)-N-[2,5-difluoro-4-(trifluoromethyl)phenyl]-1H-pyrrole-3-sulfonamide] the pIC50 was greater than 6.30.
`O=S(=O)(Nc1cc(F)c(Br)cc1F)c1c[nH]cc1Cc1ccccc1` [Cpd 193, 4-benzyl-N-(4-bromo-2,5-difluoro-phenyl)-1H-pyrrole-3-sulfonamide] was tested, and the pIC50 was 5.30 to 6.30.
`N#Cc1cc(F)c(NS(=O)(=O)c2c[nH]cc2Cc2ccccc2)cc1Cl` [Cpd 439, 4-benzyl-N-(5-chloro-4-cyano-2-fluorophenyl)-1H-pyrrole-3-sulfonamide] gave a pIC50 greater than 6.30.
`N#Cc1ccc(NS(=O)(=O)c2c[nH]c(-c3ccncc3F)c2)c(F)c1` [Cpd 066, N-(4-cyano-2-fluoro-phenyl)-5-(3-fluoro-4-pyridyl)-1H-pyrrole-3-sulfonamide] was tested, and the pIC50 was 5.30 to 6.30.
In the case of `COc1cccc(Cc2c[nH]cc2S(=O)(=O)Nc2ccc(C#N)cc2F)c1` [Cpd 210, N-(4-cyano-2-fluoro-phenyl)-4-[(3-methoxyphenyl)methyl]-1H-pyrrole-3-sulfonamide], the pIC50 was greater than 6.30.
`N#CCOc1cc(F)c(NS(=O)(=O)c2c[nH]c(-c3ccc(F)cc3)c2)cc1F` [Cpd 450, N-[4-(cyanomethoxy)-2,5-difluorophenyl]-5-(4-fluorophenyl)-1H-pyrrole-3-sulfonamide] gave a pIC50 of 5.30 to 6.30.
In the case of `COc1ccccc1-c1cc(S(=O)(=O)Nc2ccc(C#N)cc2F)c[nH]1` [Cpd 017, N-(4-cyano-2-fluoro-phenyl)-5-(2-methoxyphenyl)-1H-pyrrole-3-sulfonamide], the pIC50 was greater than 6.30.
`O=S(=O)(Nc1ncc(C(F)(F)F)s1)c1c[nH]c(-c2ccccc2)c1` [Cpd 630, 5-phenyl-N-[5-(trifluoromethyl)-1,3-thiazol-2-yl]-1H-pyrrole-3-sulfonamide] gave a pIC50 of 5.30 to 6.30.
`N#Cc1ccc(NS(=O)(=O)c2c[nH]c(-c3cc(Cl)ccc3Cl)c2)c(F)c1` [Cpd 260, N-(4-cyano-2-fluoro-phenyl)-5-(2,5-dichlorophenyl)-1H-pyrrole-3-sulfonamide] gave a pIC50 greater than 6.30.
Work on `O=S(=O)(Nc1cc(F)c(OC(F)(F)F)cc1F)c1c[nH]c(-c2ccccn2)c1` [Cpd 246, N-[2,5-difluoro-4-(trifluoromethoxy)phenyl]-5-(2-pyridyl)-1H-pyrrole-3-sulfonamide] yielded a pIC50 greater than 6.30.
`N#Cc1cc(F)c(NS(=O)(=O)c2c[nH]c(-c3ccoc3)c2)cc1F` [Cpd 640, N-(4-cyano-2,5-difluorophenyl)-5-(furan-3-yl)-1H-pyrrole-3-sulfonamide] showed a pIC50 greater than 6.30.
For `N#Cc1cc(F)c(NS(=O)(=O)c2c[nH]cc2Cc2cccc(C3CC3)c2)cc1F` [Cpd 586, N-(4-cyano-2,5-difluorophenyl)-4-[(3-cyclopropylphenyl)methyl]-1H-pyrrole-3-sulfonamide], the pIC50 was 5.30 to 6.30.
For `O=S(=O)(Nc1cc(F)c(-c2ccccc2)cc1F)c1c[nH]c(-c2ccccn2)c1` [Cpd 174, N-(2,5-difluoro-4-phenyl-phenyl)-5-(2-pyridyl)-1H-pyrrole-3-sulfonamide], the pIC50 was 4.30 to 5.30.
In the case of `N#Cc1ccc(NS(=O)(=O)c2c[nH]c(C(=O)c3ccccc3)c2)c(F)c1` [Cpd 013, 5-benzoyl-N-(4-cyano-2-fluoro-phenyl)-1H-pyrrole-3-sulfonamide], the pIC50 was 4.30 to 5.30.
`O=S(=O)(Nc1cc(OC(F)F)c(Cl)cc1F)c1c[nH]c(-c2ccccn2)c1` [Cpd 419, N-[4-chloro-5-(difluoromethoxy)-2-fluorophenyl]-5-pyridin-2-yl-1H-pyrrole-3-sulfonamide] gave a pIC50 of 5.30 to 6.30.
In the case of `O=S(=O)(Nc1cc(F)c(C(F)(F)F)cc1F)c1c[nH]c(-c2ccc(Cl)cn2)c1` [Cpd 197, 5-(5-chloro-2-pyridyl)-N-[2,5-difluoro-4-(trifluoromethyl)phenyl]-1H-pyrrole-3-sulfonamide], the pIC50 was 4.30 to 5.30.
